Assay results as given in US20050256174A1, “Raf kinase inhibitors” (priority 1998, published 2005).

First: COC(=O)c1sc(C(C)C)cc1NC(=O)Nc1ccc(C)cc1 [Example 1, 5-Isopropyl-3-(3-p-tolyl-ureido)-thiophene-2-carboxylic acid methyl ester]
Second: COC(=O)c1cc(C(C)C)sc1NC(=O)Nc1ccc(C)cc1 [Example 29, 5-Isopropyl-2-(3-p-tolyl-ureido)-thiophene-3-carboxylic acid methyl ester]
The melting point of the first is higher: 93 to 95 °C for the first, 49 to 51 °C for the second.

Compared with `COC(=O)c1cc(C(C)(C)C)sc1NC(=O)Nc1ccccc1` [Example 27, 5-tert-Butyl-2-(3-phenyl-ureido)-thiophene-3-carboxylic acid methyl ester], `COC(=O)c1cc(C(C)(C)C)sc1NC(=O)Nc1ccc(C)cc1` [Example 26, 5-tert-Butyl-2-(3-p-tolyl-ureido)-thiophene-3-carboxylic acid methyl ester] is higher in melting point: 80 to 82 °C for the first, 109 to 111 °C for the second.

Compared with `COC(=O)c1cc(C(C)C)sc1NC(=O)Nc1ccc(C)s1` [Example 30, 5-Isopropyl-2-[3-(5-methyl-thiophen-2-yl)-ureido]-thiophene-3-carboxylic acid methyl ester], `CCc1nnc(NC(=O)Nc2sc(C(C)(C)C)cc2C(=O)OC)s1` [Example 28, 5-tert-Butyl-2-(3-(5-ethyl-[1,3,4]thiadiazol-2-yl)-ureido)-thiophene-3-carboxylic acid methyl ester] is higher in melting point: 70 to 73 °C for the first, 206 to 208 °C for the second.
